Read-outs that look alike come from different tables or passages of the source.
Legend:
Format in all cases: biochemical
[1] = target: T1, Tyro3 (Homo sapiens, UniProt Q06418); assay: Tyro3 kinase inhibition IC50
T1 sequence (Q06418 41-890): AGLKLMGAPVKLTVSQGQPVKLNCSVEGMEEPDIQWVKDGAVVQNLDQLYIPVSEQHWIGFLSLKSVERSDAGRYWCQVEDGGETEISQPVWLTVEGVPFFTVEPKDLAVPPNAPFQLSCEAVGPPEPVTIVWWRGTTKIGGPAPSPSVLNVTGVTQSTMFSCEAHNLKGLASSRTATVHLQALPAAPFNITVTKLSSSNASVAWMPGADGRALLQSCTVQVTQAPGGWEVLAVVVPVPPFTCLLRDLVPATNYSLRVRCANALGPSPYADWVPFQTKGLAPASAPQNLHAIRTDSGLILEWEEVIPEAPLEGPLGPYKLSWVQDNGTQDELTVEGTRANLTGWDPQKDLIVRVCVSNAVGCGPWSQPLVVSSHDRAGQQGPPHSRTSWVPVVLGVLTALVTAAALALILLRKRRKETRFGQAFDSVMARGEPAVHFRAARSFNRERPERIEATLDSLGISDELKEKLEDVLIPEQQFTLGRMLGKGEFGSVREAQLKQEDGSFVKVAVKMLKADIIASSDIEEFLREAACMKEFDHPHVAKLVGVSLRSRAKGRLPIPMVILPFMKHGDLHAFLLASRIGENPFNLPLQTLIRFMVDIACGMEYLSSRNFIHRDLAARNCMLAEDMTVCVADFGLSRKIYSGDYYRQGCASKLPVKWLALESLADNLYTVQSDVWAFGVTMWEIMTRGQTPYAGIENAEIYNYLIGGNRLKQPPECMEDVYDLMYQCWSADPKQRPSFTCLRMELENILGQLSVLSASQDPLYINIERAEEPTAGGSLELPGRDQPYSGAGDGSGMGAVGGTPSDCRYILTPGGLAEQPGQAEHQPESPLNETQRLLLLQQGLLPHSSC

[2] = target: T2, Mer (Homo sapiens, UniProt Q12866); assay: Mer kinase inhibition IC50; details: read-out: Mer IC50
T2 sequence (Q12866 21-999): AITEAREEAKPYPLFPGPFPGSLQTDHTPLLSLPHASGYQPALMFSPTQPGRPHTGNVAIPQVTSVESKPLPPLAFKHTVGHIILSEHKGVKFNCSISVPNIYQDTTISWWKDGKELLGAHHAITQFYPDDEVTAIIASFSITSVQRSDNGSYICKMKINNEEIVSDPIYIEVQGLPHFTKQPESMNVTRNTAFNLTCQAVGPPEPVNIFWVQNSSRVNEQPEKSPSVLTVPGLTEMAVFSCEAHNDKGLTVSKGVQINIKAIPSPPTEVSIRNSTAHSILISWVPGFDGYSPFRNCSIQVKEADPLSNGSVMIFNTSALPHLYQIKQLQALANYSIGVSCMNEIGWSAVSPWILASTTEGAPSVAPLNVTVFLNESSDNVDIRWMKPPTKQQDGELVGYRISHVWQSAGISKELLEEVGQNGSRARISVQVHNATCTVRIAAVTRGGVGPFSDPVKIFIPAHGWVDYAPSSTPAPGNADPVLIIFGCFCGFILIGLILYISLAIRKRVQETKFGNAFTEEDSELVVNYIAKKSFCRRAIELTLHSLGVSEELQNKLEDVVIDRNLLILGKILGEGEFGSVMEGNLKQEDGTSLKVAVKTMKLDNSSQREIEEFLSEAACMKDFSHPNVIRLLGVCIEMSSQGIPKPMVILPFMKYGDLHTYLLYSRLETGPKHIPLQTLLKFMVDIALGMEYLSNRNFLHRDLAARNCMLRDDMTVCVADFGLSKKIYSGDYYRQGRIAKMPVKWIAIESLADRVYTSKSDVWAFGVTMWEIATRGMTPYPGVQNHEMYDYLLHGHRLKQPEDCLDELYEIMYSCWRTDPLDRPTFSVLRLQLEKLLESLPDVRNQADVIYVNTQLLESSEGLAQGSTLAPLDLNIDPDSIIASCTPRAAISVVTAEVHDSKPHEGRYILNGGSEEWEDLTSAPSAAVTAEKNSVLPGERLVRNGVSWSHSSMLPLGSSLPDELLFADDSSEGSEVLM

[3] = target: T3, Axl (Homo sapiens, UniProt P30530); assay: Axl kinase inhibition IC50
T3 sequence (P30530 26-894): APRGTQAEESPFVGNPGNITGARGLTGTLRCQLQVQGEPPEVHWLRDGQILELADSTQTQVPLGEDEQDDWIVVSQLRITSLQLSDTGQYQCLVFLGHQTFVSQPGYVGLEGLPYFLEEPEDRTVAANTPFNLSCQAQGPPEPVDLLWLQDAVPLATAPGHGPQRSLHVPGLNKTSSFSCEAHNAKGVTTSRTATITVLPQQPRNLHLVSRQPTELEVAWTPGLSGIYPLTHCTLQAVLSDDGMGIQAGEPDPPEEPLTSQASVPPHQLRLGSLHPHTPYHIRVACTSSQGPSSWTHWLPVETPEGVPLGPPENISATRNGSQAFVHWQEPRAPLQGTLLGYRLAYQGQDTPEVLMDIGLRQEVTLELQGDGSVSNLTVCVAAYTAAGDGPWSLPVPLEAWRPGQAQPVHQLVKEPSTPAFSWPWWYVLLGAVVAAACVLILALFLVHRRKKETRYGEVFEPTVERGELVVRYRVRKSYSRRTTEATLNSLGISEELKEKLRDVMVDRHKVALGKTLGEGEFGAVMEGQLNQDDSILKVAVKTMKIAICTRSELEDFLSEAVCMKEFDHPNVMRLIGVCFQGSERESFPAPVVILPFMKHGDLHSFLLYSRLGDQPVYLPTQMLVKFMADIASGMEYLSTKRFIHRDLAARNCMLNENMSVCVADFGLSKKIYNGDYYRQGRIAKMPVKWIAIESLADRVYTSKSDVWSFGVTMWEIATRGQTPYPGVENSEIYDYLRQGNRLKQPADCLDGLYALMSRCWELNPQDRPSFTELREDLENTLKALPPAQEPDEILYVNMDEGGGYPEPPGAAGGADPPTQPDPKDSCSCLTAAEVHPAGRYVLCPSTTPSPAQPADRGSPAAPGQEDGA

IC50 ([1]; Table 3, read-out: Tyro3 IC50) [nM]	IC50 ([2]; Table 3) [nM]	IC50 ([3]; Table 3) [nM]	IC50 ([1]; Table 2, read-out: Tyro3 IC50) [nM]	IC50 ([2]; Table 2) [nM]	IC50 ([3]; Table 2) [nM]	Structure (SMILES)	other results
< 10	< 10	< 10				CN1CCN(Cc2ccc(-c3cnc(Nc4ccc(C#Cc5cc(NC(=O)C6CC6)ccn5)cc4)nc3N[C@H]3CC[C@H](O)CC3)cc2)CC1 [UNC3622A]	
< 10	< 10	100 to 1000				CC(C)C(=O)Nc1ccnc(C#Cc2ccc(Nc3ncc(-c4ccc(CN5CCN(C)CC5)cc4)c(N[C@H]4CC[C@H](O)CC4)n3)c(F)c2)c1 [UNC4040A]	
						O[C@H]1CC[C@H](Nc2nc(Nc3ccc(C#Cc4cc(-c5ccn[nH]5)ccn4)cc3)ncc2-c2ccccn2)CC1 [UNC4360A]	IC50 ([1]; Table 4, read-out: Tryo3 IC50): 100 to 1000 nM; IC50 ([2]; Table 4): 100 to 1000 nM; IC50 ([3]; Table 4): 1000 to 30000 nM
			100 to 1000	10 to 100	100 to 1000	O[C@H]1CC[C@H](Nc2nc(Nc3ccc(C4=CCOCC4)cc3)ncc2-c2ccccn2)CC1 [UNC4434A]	
10 to 100	10 to 100	100 to 1000				CC(C)C(=O)Nc1ccnc(C#Cc2ccc(Nc3ncc(-c4ccccc4)c(N[C@H]4CC[C@H](O)CC4)n3)cc2)c1 [UNC4041A]	
						O[C@H]1CC[C@H](Nc2nc(Nc3ccc(C#Cc4cc(-c5cccnc5)ccn4)cc3)ncc2-c2ccccn2)CC1 [UNC4361A]	IC50 ([1]; Table 4, read-out: Tryo3 IC50): 100 to 1000 nM; IC50 ([2]; Table 4): 100 to 1000 nM; IC50 ([3]; Table 4): 100 to 1000 nM
< 10	< 10	< 10				CC(C)C(=O)Nc1ccnc(C#Cc2ccc(Nc3ncc(-c4ccc(CN5CCN(C)CC5)cc4)c(N[C@H]4CC[C@H](O)CC4)n3)cc2)c1 [UNC3870A]	
			100 to 1000	10 to 100	100 to 1000	CN1CCCC(c2ccc(Nc3ncc(-c4ccccn4)c(N[C@H]4CC[C@H](O)CC4)n3)cc2)C1 (stereo partly drawn) [UNC5131A]	
10 to 100	< 10	10 to 100				CN1CCN(Cc2ccc(-c3cnc(Nc4ccc(C#Cc5cc(NC(=O)c6ccccc6)ccn5)cc4)nc3N[C@H]3CC[C@H](O)CC3)cc2)CC1 [UNC3868A]	
< 10	< 10	10 to 100				CC(C)C(=O)Nc1ccnc(C#Cc2ccc(Nc3ncc(-c4ccncc4)c(N[C@H]4CC[C@H](O)CC4)n3)cc2)c1 [UNC4043A]	
			100 to 1000	100 to 1000	1000 to 30000	O[C@H]1CC[C@H](Nc2nc(Nc3ccc(C4CCNCC4)cc3)ncc2-c2ccccn2)CC1 [UNC5128A]	
			100 to 1000	100 to 1000	1000 to 30000	CN1CC=C(c2ccc(Nc3ncc(-c4ccccn4)c(N[C@H]4CC[C@H](O)CC4)n3)cc2)CC1 [UNC4431A]	
10 to 100	10 to 100	100 to 1000				Cc1cc(C#Cc2cc(NC(=O)C(C)C)ccn2)ccc1Nc1ncc(-c2ccc(CN3CCN(C)CC3)cc2)c(N[C@H]2CC[C@H](O)CC2)n1 [UNC4048A]	
			100 to 1000	100 to 1000	1000 to 30000	CC[C@H](N)C(=O)N1CC=C(c2ccc(Nc3ncc(-c4ccccn4)c(N[C@H]4CC[C@H](O)CC4)n3)cc2)CC1 [UNC4403A]	
